Patent EP2545050B1, “COMPOUNDS FOR THE TREATMENT OF HEPATITIS C” (Bristol-Myers Squibb Company, priority 2010, dated 2011)

Key:
HCV replicon = HCV replicon assay (FRET or luciferase reporter); type: cell-based; conditions: Hepatitis C virus; HCV replicon cells; Table 1
Excerpt: FRET Assay Preparation. To perform the HCV FRET screening assay, 96-well cell culture plates were used. The FRET peptide (Anaspec, Inc.) (Taliani et al., Anal. Biochem. 1996, 240, 60-67) contains a fluorescence donor, EDANS, near one end of the peptide and an acceptor, DABCYL, near the other end. The fluorescence of the peptide is quenched by […] resonance energy transfer (RET) between the donor and the acceptor, but as the NS3 protease cleaves the peptide the products are released from RET quenching and the fluorescence of the donor becomes apparent. The assay reagent was made as follows: 5X cell Luciferase cell culture lysis reagent from Promega (#E153A) diluted to 1X with dH2O, NaCl added to 150 mM final, the FRET peptide diluted to 20 µM final from a 2 mM stock.
To prepare plates, HCV replicon cells, with or without a Renilla luciferase reporter gene, were trypsinized and placed into each well of a 96-well plate with titrated test compounds added in columns 3 through 12; columns 1 and 2 contained a control compound (HCV protease inhibitor), and the bottom row contained cells without compound. The plates were then placed in a CO2 incubator at 37 °C.
Assays. Subsequent to addition of the test compounds described above (FRET Assay Preparation), at various times the plate was removed and Alamar blue solution (Trek Diagnostics, #00-100) was added per well as a measure of cellular toxicity. After reading in a Cytoflour 4000 instrument (PE Biosystems), plates were rinsed with PBS and then used for FRET assay by the addition of 30 ul of the FRET peptide assay reagent described above (FRET Assay Preparation) per well. The plate was then placed into the Cytoflour 4000 instrument which had been set to 340 excite/490 emission, automatic mode for 20 cycles and the plate read in a kinetic mode. Typically, the signal to noise using an endpoint analysis after the reads was at least three-fold. Alternatively, after Alamar blue reading, plates were rinsed with PBS, 50 ul of DMEM (high glucose) without phenol red was added and plates were then used for luciferase assay using the Promega Dual-Glo Luciferase Assay System.
Compound analysis was determined by quantification of the relative HCV replicon inhibition and the relative cytotoxicity values. To calculate cytoxicity values, the average Alamar Blue fluorescence signals from the control wells were set as 100% non-toxic. The individual signals in each of the compound test wells were then divided by the average control signal and multiplied by 100% to determine […]. To calculate the HCV replicon inhibition values, an average background value was obtained from the two wells containing the highest amount of HCV protease inhibitor at the end of the assay period. These numbers were similar to those obtained from naive Huh-7 cells.
The background numbers were then subtracted from the average signal obtained from the control wells and this number was used as 100% activity. The individual signals in each of the compound test wells were then divided by the averaged control values after background subtraction and multiplied by 100% to determine percent activity. EC50 values for a protease inhibitor titration were calculated as the concentration which caused a 50% reduction in FRET or luciferase activity. The two numbers generated for the compound plate, percent cytoxicity and percent activity were used to determine compounds of interest for further analysis.
HCV Replicon Luciferase Reporter Assay
The HCV replicon luciferase assay was developed to monitor the inhibitory effects of compounds described in the disclosure on HCV viral replication. Utilization of a replicon luciferase reporter assay was first described by Krieger et al (Krieger N, Lohmann V, and Bartenschlager R, J. Virol. 75(10):4614-4624 (2001)). […]

HCV = conditions: extended dosing of the combination regimens; development suspended; cited from earlier work

Row | SMILES | EC50 (HCV replicon) | hepatic toxicity (HCV)
1 | CNC(=O)c1c(-c2ccc(F)cc2)nn2ccc(-c3cc(C(=O)NC4(c5cnccn5)CC4)c(OC)cc3C)c(F)c12 [4-fluoro-2-(4-fluorophenyl)-5-(4-methoxy-2-methyl-5-(1-(pyrazin-2-yl)cyclopropylcarbamoyl)phenyl)-N-methylpyrazolo[1,5-a]pyridine-3-carboxamide] | 0.002 to 0.25 µM | –
2 | CNC(=O)c1c(-c2ccc(F)cc2)nn2ccc(-c3cc(C(=O)NC4(c5ccnnc5)CC4)c(OC)cc3C)c(F)c12 [4-fluoro-2-(4-fluorophenyl)-5-(4-methoxy-2-methyl-5-(1-(pyridazin-4-yl)cyclopropylcarbamoyl)phenyl)-N-methylpyrazolo[1,5-a]pyridine-3-carboxamide] | 1 to 10 µM | –
3 | CNC(=O)c1c(-c2ccc(F)cc2)nn2ccc(-c3cc(C(=O)NC4(c5cc(F)ccn5)CC4)c(OC)nc3C)c(F)c12 [4-fluoro-2-(4-fluorophenyl)-5-(5-(1-(4-fluoropyridin-2-yl)cyclopropylcarbamoyl)-6-methoxy-2-methylpyridin-3-yl)-N-methylpyrazolo[1,5-a]pyridine-3-carboxamide] | 0.002 to 0.25 µM | –
4 | CNC(=O)c1c(-c2ccc(F)cc2)nn2ccc(-c3cc(C(=O)NC4(c5nccc(O)n5)CC4)c(OC)cc3C)c(F)c12 [4-fluoro-2-(4-fluorophenyl)-5-(5-(1-(4-hydroxypyrimidin-2-yl)cyclopropylcarbamoyl)-4-methoxy-2-methylphenyl)-N-methylpyrazolo[1,5-a]pyridine-3-carboxamide] | 1 to 10 µM | –
5 | CNC(=O)c1c(-c2ccc(F)cc2)nn2ccc(-c3cc(C(=O)NC4(c5ccccn5)CC4)c(OC)nc3C)c(F)c12 [4-fluoro-2-(4-fluorophenyl)-5-(6-methoxy-2-methyl-5-(1-(pyridin-2-yl)cyclopropylcarbamoyl)pyridin-3-yl)-N-methylpyrazolo[1,5-a]pyridine-3-carboxamide] | 0.002 to 0.25 µM | –
6 | CNC(=O)c1c(-c2ccc(F)cc2)nn2ccc(-c3cc(C(=O)NC4(c5ccccc5)CC4)c(OC)nc3C)c(F)c12 [4-fluoro-2-(4-fluorophenyl)-5-(6-methoxy-2-methyl-5-(1-phenylcyclopropylcarbamoyl)pyridin-3-yl)-N-methylpyrazolo[1,5-a]pyridine-3-carboxamide] | 0.002 to 0.25 µM | –
7 | CNC(=O)c1c(-c2ccc(F)cc2)nn2ccc(-c3cc(C(=O)NC4(c5ccccn5)CC4)c(OCC4CCOCC4)nc3C)c(F)c12 [4-fluoro-2-(4-fluorophenyl)-N-methyl-5-(2-methyl-5-(1-(pyridin-2-yl)cyclopropylcarbamoyl)-6-((tetrahydro-2H-pyran-4-yl)methoxy)pyridin-3-yl)pyrazolo[1,5-a]pyridine-3-carboxamide] | 0.002 to 0.25 µM | –
8 | CNC(=O)c1c(-c2ccc(F)cc2)nn2ccc(-c3cc(C(=O)NC4(c5ncccn5)CC4)c(OCC4CCOCC4)nc3C)c(F)c12 [4-fluoro-2-(4-fluorophenyl)-N-methyl-5-(2-methyl-5-(1-(pyrimidin-2-yl)cyclopropylcarbamoyl)-6-((tetrahydro-2H-pyran-4-yl)methoxy)pyridin-3-yl)pyrazolo[1,5-a]pyridine-3-carboxamide] | 0.002 to 0.25 µM | –
9 | CNC(=O)c1c(-c2ccc(F)cc2)nn2ccc(-c3cc(C(=O)NC4(c5ccccn5)CC4)c(OC(F)F)nc3C)c(F)c12 [5-(6-(difluoromethoxy)-2-methyl-5-(1-(pyridin-2-yl)cyclopropylcarbamoyl)pyridin-3-yl)-4-fluoro-2-(4-fluorophenyl)-N-methylpyrazolo[1,5-a]pyridine-3-carboxamide] | 0.002 to 0.25 µM | –
10 | CNC(=O)c1c(-c2ccc(F)cc2)nn2ccc(-c3cc(C(=O)NC4(c5ccccc5)CC4)c(OC(F)F)nc3C)c(F)c12 [5-(6-(difluoromethoxy)-2-methyl-5-(1-phenylcyclopropylcarbamoyl)pyridin-3-yl)-4-fluoro-2-(4-fluorophenyl)-N-methylpyrazolo[1,5-a]pyridine-3-carboxamide] | 0.002 to 0.25 µM | –
11 | CNC(=O)c1c(-c2ccc(F)cc2)oc2cc(N(CCO)S(C)(=O)=O)c(C3CC3)cc12 [HCV-796] | – | hepatic toxicity observed
